Results as given in patent US20240319211A1, “CONTENT CONVERSION METHOD OF FREE COMPONENTS BY TRANSFORMING ULTRAFILTRATION TO EQUILIBRIUM DIALYSIS” (HEFEI NOVA-MS BIOTECH MEDICAL EQUIPMENT CO., LTD, priority 2022, published 2024).
Values joined by “and” are separate entries in the source; they are usually repeats but may differ in a detail not shown here. Equal entries are not always repeated.

Legend:
[1] = free testosterone in serum by ultrafiltration (UF), LC-MS/MS; details: for Concentration UF, Average: average of 10 samples; for Concentration UF: serum, individual samples No. 1-10
Method: (§1) In practice, other temperatures can also be used. Subsequently, high-performance liquid chromatography tandem mass spectrometry is used for detection, and results are shown in Table 1. Where
(§2) Ultrafiltration: 900 μL 4-hydroxyethyl piperazine ethanesulfonic acid solution is added to 300 μL serum, and the solution is mixed well by pipettes. Subsequently, the obtained mixture is transferred to the activated ultrafiltration tube and centrifuged at 20° C., 25° C., 30° C., and 37° C., and 2000 g for 1 h, respectively.
Solid-phase extraction: 20 μL internal standard solution is added to 600 μL ultrafiltrate, and vortexed well. The obtained mixture is added to an activated HLB solid-phase extraction: conditioning is performed twice by 300 μL 10% methanol aqueous solution, elution is performed twice by 300 μL 90% methanol aqueous solution, eluent is merged and blown to dry by nitrogen, and finally, the obtained product is redissolved by 100 μL 50% methanol aqueous solution.
(§3) Chromatographic column: Acquity UPLC BEH C18 (2.1×50 mm, 1.7 μm); column oven temperature: 40° C.; mobile phases: 0.1% formic acid 2 mM ammonium acetate aqueous solution (A)˜methanol (B); and gradient elution: […]
(§4) ion source: electrospray ion source in positive ion mode; spray voltage: 5500 V; ion source temperature: 550° C.; GS1: 50 psi; GS2: 50 psi; curtain gas: 30 psi; and multiple reaction monitoring: […]

[2] = free testosterone in serum by equilibrium dialysis (ED), LC-MS/MS; details: for Concentration ED, Average: average of 10 samples; for Concentration ED: serum, individual samples No. 1-10
Method: as §1
Equilibrium dialysis: 200 μL 4-hydroxyethyl piperazine ethanesulfonic acid solution is placed on the buffer side of the equilibrium dialysis plate, 200 μL serum is placed on the sample side. Subsequently, the equilibrium dialysis plate is dialyzed at 20° C., 25° C., 30° C., and 37° C. for 22 h, respectively.
Solid-phase extraction: 20 μL internal standard solution is added to 200 μL dialysate, and vortexed well. The obtained mixture is added to an activated HLB solid-phase extraction: conditioning is performed twice by 300 μL 10% methanol aqueous solution, elution is performed twice by using 300 μL 90% methanol aqueous solution, eluent is merged and blown to dry by nitrogen, and finally, the obtained product is redissolved by 100 μL 50% methanol aqueous solution.
as §3, §4

[3] = FT3 in serum by ultrafiltration (UF), LC-MS/MS; details: for Concentration UF, Average: average of 10 samples; for Concentration UF: serum, individual samples No. 1-10
Method: (§5) In a method in this embodiment, ultrafiltration and equilibrium dialysis are performed to separate free triiodothyronine (FT3) at 20° C., 25° C., 30° C., and 37° C., respectively. In practice, another temperature value may be used. Where
as §2, with “100” for “900”, “a 100” for “300”
Internal standard precipitation: 100 μL internal standard solution is added to 100 μL ultrafiltrate, and vortexed well for 3 min. Then, centrifugation is performed at 4° C. and 12000 rpm for 10 min.
(§6) After the free T3 is separated by using ultrafiltration and equilibrium dialysis, the free T3 is detected by the following high-performance liquid chromatography tandem mass spectrometry parameters:
(§7) chromatographic column: Acquity UPLC BEH C18 (2.1×50 mm, 1.7 μm); column oven temperature: 30° C.; mobile phases: 0.1% formic acid aqueous solution (A)˜0.1% formic acid methanol (B); and gradient elution: […]
as §4

[4] = FT3 in serum by equilibrium dialysis (ED), LC-MS/MS; details: for Concentration ED, Average: average of 10 samples; for Concentration ED: serum, individual samples No. 1-10
Method: as §5
Equilibrium dialysis: 200 μL 4-hydroxyethyl piperazine ethanesulfonic acid solution is placed on the buffer side of the equilibrium plate, 200 μL serum is placed on the sample side. Subsequently, the equilibrium dialysis plate is dialyzed at 20° C., 25° C., 30° C., and 37° C. for 22 h, respectively.
Internal standard precipitation: 100 μL internal standard solution is added to 100 μL dialysate and vortexed well for 3 min. Then, centrifugation is performed at 4° C. and 12000 rpm for 10 min.
as §6, §7, §4

[5] = FT4 in serum by ultrafiltration (UF), LC-MS/MS; format: in vitro ADME, human; details: for Concentration UF, Average: average of 10 samples; for Concentration UF: serum, individual samples No. 1-10
Source text: (§8) In practice, other temperatures can also be used. […] Where

[6] = FT4 in serum by equilibrium dialysis (ED), LC-MS/MS; format: in vitro ADME, human; details: for Concentration ED, Average: average of 10 samples; for Concentration ED: serum, individual samples No. 1-10
Source text: as §8

## C[C@]12CC[C@H]3[C@@H](CCC4=CC(=O)CC[C@@]43C)[C@@H]1CC[C@@H]2O [free testosterone, testosterone]
[1]; 20° C.
  Concentration UF, Average: 4.12 pg/mL
  Concentration UF: 4.26 pg/mL and 4.29 pg/mL and 4.01 pg/mL and 4.38 pg/mL and 3.98 pg/mL and 3.92 pg/mL and 4.15 pg/mL and 4.12 pg/mL and 3.97 pg/mL and 4.07 pg/mL
[1]; 25° C.
  Concentration UF, Average: 4.50 pg/mL
  Concentration UF: 4.37 pg/mL and 4.64 pg/mL (2×) and 4.51 pg/mL (2×) and 4.45 pg/mL and 4.39 pg/mL and 4.48 pg/mL and 4.43 pg/mL and 4.61 pg/mL
[1]; 30° C.
  Concentration UF, Average: 4.81 pg/mL
  Concentration UF: 4.69 pg/mL and 4.96 pg/mL (2×) and 4.83 pg/mL and 4.79 pg/mL and 4.58 pg/mL and 4.85 pg/mL and 4.91 pg/mL and 4.74 pg/mL and 4.77 pg/mL
[1]; 37° C.
  Concentration UF, Average: 5.16 pg/mL
  Concentration UF: 5.12 pg/mL and 5.28 pg/mL and 5.30 pg/mL and 5.04 pg/mL and 5.16 pg/mL (2×) and 5.18 pg/mL and 5.24 pg/mL and 5.03 pg/mL and 5.07 pg/mL
[2]; 20° C.
  Concentration ED, Average: 4.08 pg/mL
  Concentration ED: 4.05 pg/mL (2×) and 4.17 pg/mL and 3.94 pg/mL and 4.21 pg/mL and 3.85 pg/mL and 4.18 pg/mL and 4.01 pg/mL and 4.16 pg/mL and 4.22 pg/mL
[2]; 25° C.
  Concentration ED, Average: 4.55 pg/mL
  Concentration ED: 4.75 pg/mL and 4.61 pg/mL and 4.48 pg/mL and 4.56 pg/mL and 4.41 pg/mL and 4.62 pg/mL and 4.57 pg/mL and 4.42 pg/mL and 4.50 pg/mL and 4.54 pg/mL
[2]; 30° C.
  Concentration ED, Average: 4.93 pg/mL
  Concentration ED: 5.04 pg/mL and 5.01 pg/mL and 4.95 pg/mL and 5.02 pg/mL and 4.85 pg/mL and 4.87 pg/mL and 4.91 pg/mL and 4.98 pg/mL and 4.84 pg/mL and 4.82 pg/mL
[2]; 37° C.
  Concentration ED, Average: 5.21 pg/mL
  Concentration ED: 5.40 pg/mL and 4.95 pg/mL and 5.23 pg/mL and 5.42 pg/mL and 5.12 pg/mL and 5.32 pg/mL and 5.22 pg/mL and 5.27 pg/mL and 5.13 pg/mL and 5.07 pg/mL

## N[C@@H](Cc1cc(I)c(Oc2ccc(O)c(I)c2)c(I)c1)C(=O)O [FT3, triiodothyronine]
[3]; 20° C.
  Concentration UF, Average: 2.34 pg/mL
  Concentration UF: 2.54 pg/mL and 2.25 pg/mL and 2.36 pg/mL (2×) and 2.41 pg/mL and 2.32 pg/mL and 2.28 pg/mL and 2.17 pg/mL and 2.52 pg/mL and 2.23 pg/mL
[3]; 25° C.
  Concentration UF, Average: 2.58 pg/mL
  Concentration UF: 2.52 pg/mL and 2.62 pg/mL and 2.45 pg/mL and 2.68 pg/mL and 2.58 pg/mL and 2.46 pg/mL and 2.57 pg/mL and 2.65 pg/mL and 2.71 pg/mL and 2.53 pg/mL
[3]; 30° C.
  Concentration UF, Average: 2.73 pg/mL
  Concentration UF: 2.68 pg/mL and 2.75 pg/mL (2×) and 2.82 pg/mL and 2.66 pg/mL and 2.78 pg/mL and 2.58 pg/mL and 2.84 pg/mL and 2.72 pg/mL and 2.67 pg/mL
[3]; 37° C.
  Concentration UF, Average: 3.19 pg/mL
  Concentration UF: 3.05 pg/mL (2×) and 3.24 pg/mL and 3.13 pg/mL and 3.48 pg/mL and 3.20 pg/mL and 3.18 pg/mL and 3.27 pg/mL and 3.08 pg/mL and 3.17 pg/mL
[4]; 20° C.
  Concentration ED, Average: 2.40 pg/mL
  Concentration ED: 2.45 pg/mL and 2.62 pg/mL and 2.25 pg/mL and 2.35 pg/mL and 2.48 pg/mL and 2.36 pg/mL and 2.27 pg/mL and 2.46 pg/mL and 2.42 pg/mL and 2.31 pg/mL
[4]; 25° C.
  Concentration ED, Average: 2.61 pg/mL
  Concentration ED: 2.65 pg/mL and 2.75 pg/mL and 2.52 pg/mL and 2.61 pg/mL and 2.48 pg/mL and 2.54 pg/mL and 2.68 pg/mL and 2.70 pg/mL and 2.63 pg/mL and 2.57 pg/mL
[4]; 30° C.
  Concentration ED, Average: 2.77 pg/mL
  Concentration ED: 2.72 pg/mL and 2.65 pg/mL and 2.85 pg/mL (2×) and 2.88 pg/mL and 2.68 pg/mL and 2.76 pg/mL and 2.78 pg/mL (2×) and 2.71 pg/mL
[4]; 37° C. equilibrium dialysis 22 h, 60 different serum specimens
  2nd conc. (ED): 3.05 and 3.18 and 3.17 and 3.22 and 3.04 and 3.24 and 3.19 and 3.48
[4]; 37° C.
  Concentration ED, Average: 3.22 pg/mL
  Concentration ED: 3.13 pg/mL and 3.22 pg/mL and 3.04 pg/mL and 3.32 pg/mL and 3.15 pg/mL and 3.31 pg/mL (2×) and 3.34 pg/mL and 3.28 pg/mL and 3.12 pg/mL

## N[C@@H](Cc1cc(I)c(Oc2cc(I)c(O)c(I)c2)c(I)c1)C(=O)O [FT4, thyroxine]
[5]; 20° C.
  Concentration UF, Average: 6.85 pg/mL
  Concentration UF: 7.21 pg/mL and 6.77 pg/mL and 6.78 pg/mL (2×) and 6.40 pg/mL and 6.94 pg/mL and 6.85 pg/mL and 7.01 pg/mL and 6.90 pg/mL and 6.81 pg/mL
[5]; 25° C.
  Concentration UF, Average: 8.51 pg/mL
  Concentration UF: 7.92 pg/mL and 8.97 pg/mL and 8.74 pg/mL and 8.58 pg/mL and 8.14 pg/mL and 8.06 pg/mL and 8.57 pg/mL and 8.72 pg/mL and 8.63 pg/mL and 8.76 pg/mL
[5]; 30° C.
  Concentration UF, Average: 10.58 pg/mL
  Concentration UF: 10.73 pg/mL and 9.82 pg/mL and 10.55 pg/mL and 10.61 pg/mL and 10.97 pg/mL and 10.75 pg/mL and 10.82 pg/mL and 10.57 pg/mL and 10.33 pg/mL and 10.63 pg/mL
[5]; 37° C.
  Concentration UF, Average: 14.00 pg/mL
  Concentration UF: 13.45 pg/mL and 13.82 pg/mL and 14.14 pg/mL and 13.57 pg/mL and 14.22 pg/mL and 14.58 pg/mL and 13.74 pg/mL and 14.05 pg/mL and 14.26 pg/mL and 14.16 pg/mL
[6]; 20° C.
  Concentration ED, Average: 6.83 pg/mL
  Concentration ED: 7.05 pg/mL (2×) and 6.91 pg/mL and 6.85 pg/mL and 6.76 pg/mL and 6.71 pg/mL and 6.42 pg/mL and 6.83 pg/mL and 6.84 pg/mL and 6.90 pg/mL
[6]; 25° C.
  Concentration ED, Average: 8.53 pg/mL
  Concentration ED: 8.37 pg/mL and 8.33 pg/mL and 8.83 pg/mL and 8.05 pg/mL and 8.24 pg/mL and 8.94 pg/mL and 8.47 pg/mL and 8.69 pg/mL and 8.73 pg/mL and 8.65 pg/mL
[6]; 30° C.
  Concentration ED, Average: 10.80 pg/mL
  Concentration ED: 10.91 pg/mL and 11.07 pg/mL and 11.18 pg/mL and 10.63 pg/mL (2×) and 10.46 pg/mL and 10.98 pg/mL and 10.74 pg/mL and 10.67 pg/mL and 10.75 pg/mL
[6]; 37° C.
  Concentration ED, Average: 14.22 pg/mL
  Concentration ED: 14.17 pg/mL and 14.64 pg/mL and 13.61 pg/mL and 14.22 pg/mL and 14.67 pg/mL and 14.63 pg/mL and 13.94 pg/mL and 14.15 pg/mL and 14.11 pg/mL and 14.06 pg/mL
